Data published in ChEMBL document CHEMBL5120966, “Spicatulides A-G, Phenolic-Monoterpenoid Hybrids from Chloranthus spicatus” (J Nat Prod, 2022).

How the values were obtained:
HepG2 [1] = test: Inhibition of lipogenesis in human HepG2 cells assessed as reduction in sterol synthesis; format: functional, cell-based; conditions: dose 12.5-50 µM, DDE = dose-dependent effect
HepG2 [2] = test: Inhibition of lipogenesis in human HepG2 cells assessed as reduction in fatty acids synthesis; format: functional, cell-based; conditions: dose 0.1-1 µM, DDE = dose-dependent effect

SMILES | dose-dependent inhibition (qualitative) (HepG2 [1]) | inhibition (HepG2 [2])
COC(=O)[C@H]1c2cc(O)cc(C/C=C(\C)CCC=C(C)C)c2O[C@@]2(C)[C@@H](O)C=C(C(C)C)C[C@@H]12 | Dde | 
COC(=O)[C@@]1(O)c2cc(O)cc(C/C=C(\C)CCC=C(C)C)c2O[C@@]2(C)C=C[C@H](C(C)C)C[C@@H]12 | Dde | 
COC(=O)Cc1cc(O)cc2c1O[C@@](C)(CCC=C(C)C)C=C2 | Dde | 
COC(=O)C[C@@]1(C/C=C(\C)CCC=C(C)C)CC(=O)C=C[C@@H]1O | Dde | Dde
